Test: Western blot analysis for "B" compounds
Assay type: cell-based
Conditions: read-out: Traditional Western Degradation Potency (DC50)
Outline: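 Compound-treated cells lysed in RIPA buffer with protease inhibitors; equal protein (BCA) run on 10% SDS-PAGE, transferred to PVDF and probed with target antibodies. Band intensities quantified by densitometry and normalized to GAPDH.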

Row | SMILES | DC50 [µM]
1 | O=C1CCC(N2C(=O)c3cc4c(cc3C2=O)CN([C@H]2CC[C@@H](C(=O)N3CC(Nc5ccc([C@@H]6c7ccc(O)cc7CC[C@@H]6c6ccccc6)cc5)C3)CC2)C4)C(=O)N1 (stereo partly drawn) [Compound B125, 2-(2,6-dioxopiperidin-3-yl)-6-((1R,4s)-4-(3-((4-((1R,2S)-6-hydroxy-2-phenyl-1,2,3,4-tetrahydronaphthalen-1-yl)phenyl)amino)azetidine-1-carbonyl)cyclohexyl)-6,7-dihydropyrrolo[3,4-f]isoindole-1,3(2H,5H)-dione] | < 0.01
2 | C[C@@H]1CC2(CCN(c3ccc([C@@H]4c5ccc(O)cc5CC[C@@H]4c4ccc(F)cc4)cc3)CC2)CN1CC(=O)N1Cc2cc3c(cc2C1)C(=O)N(C1CCC(=O)NC1=O)C3=O (stereo partly drawn) [Compound B27, 2-(2,6-dioxopiperidin-3-yl)-6-(2-((R)-8-(4-((1R,2S)-2-(4-fluorophenyl)-6-hydroxy-1,2,3,4-tetrahydronaphthalen-1-yl)phenyl)-3-methyl-2,8-diazaspiro[4.5]decan-2-yl)acetyl)-6,7-dihydropyrrolo[3,4-f]isoindole-1,3(2H,5H)-dione] | > 0.1
3 | O=C1CCC(N2C(=O)c3cc4c(cc3C2=O)CN(C(=O)c2ccc(CC(=O)N3CCCC(Oc5ccc([C@@H]6c7ccc(O)cc7CC[C@@H]6c6ccccc6)cc5)C3)cc2)C4)C(=O)N1 (stereo partly drawn) [Compound B16, 2-(2,6-dioxopiperidin-3-yl)-6-(4-(2-(3-(4-((1R,2S)-6-hydroxy-2-phenyl-1,2,3,4-tetrahydronaphthalen-1-yl)phenoxy)piperidin-1-yl)-2-oxoethyl)benzoyl)-6,7-dihydropyrrolo[3,4-f]isoindole-1,3(2H,5H)-dione] | 0.01 to 0.1
4 | O=C1CCC(N2C(=O)c3cc4c(cc3C2=O)CN(C2CCC3(CC2)CCN(c2ccc([C@@H]5c6ccc(O)cc6CC[C@@H]5c5ccccc5)cc2)CC3)C4)C(=O)N1 (stereo partly drawn) [Compound B189, 2-(2,6-dioxopiperidin-3-yl)-6-(3-(4-((1R,2S)-6-hydroxy-2-phenyl-1,2,3,4-tetrahydronaphthalen-1-yl)phenyl)-3-azaspiro[5.5]undecan-9-yl)-6,7-dihydropyrrolo[3,4-f]isoindole-1,3(2H,5H)-dione] | > 0.1
5 | O=C1CCC(N2C(=O)c3cc4c(cc3C2=O)CN(CC2(F)CCN(CC3CN(c5ccc([C@@H]6c7ccc(O)cc7CC[C@@H]6c6ccccc6)cc5)C3)CC2)C4)C(=O)N1 (stereo partly drawn) [Compound B63, 2-(2,6-dioxopiperidin-3-yl)-6-((4-fluoro-1-((1-(4-((1R,2S)-6-hydroxy-2-phenyl-1,2,3,4-tetrahydronaphthalen-1-yl)phenyl)azetidin-3-yl)methyl)piperidin-4-yl)methyl)-6,7-dihydropyrrolo[3,4-f]isoindole-1,3(2H,5H)-dione] | > 0.1

More lines, now with the values ahead:

Row | DC50 [µM] | SMILES
6 | 0.01 to 0.1 | O=C1CCC(N2C(=O)c3cc4c(cc3C2=O)CN(CC(=O)N2CCC3(CC2)CCN(c2ccc([C@@H]5c6ccc(O)cc6CC[C@@H]5c5ccccc5)cc2)CC3)CC4)C(=O)N1 (stereo partly drawn) [Compound B194, 2-(2,6-dioxopiperidin-3-yl)-6-(2-(9-(4-((1R,2S)-6-hydroxy-2-phenyl-1,2,3,4-tetrahydronaphthalen-1-yl)phenyl)-3,9-diazaspiro[5.5]undecan-3-yl)-2-oxoethyl)-5,6,7,8-tetrahydro-1H-pyrrolo[3,4-g]isoquinoline-1,3(2H)-dione]
7 | > 0.1 | O=C1CCC(N2C(=O)c3cc4c(cc3C2=O)CN(C(=O)CN2CCC3(CCN(c5ccc([C@@H]6c7ccc(O)cc7CC[C@@H]6c6ccccc6)cc5)CC3)C2)C4)C(=O)N1 (mixture of isomers) [Compound B21, 2-(2,6-dioxopiperidin-3-yl)-6-(2-(8-(4-((1R,2S)-6-hydroxy-2-phenyl-1,2,3,4-tetrahydronaphthalen-1-yl)phenyl)-2,8-diazaspiro[4.5]decan-2-yl)acetyl)-6,7-dihydropyrrolo[3,4-f]isoindole-1,3(2H,5H)-dione]

Reference: patent US20260028354A1, “TETRAHYDRONAPHTHALENE DERIVATIVES AS ESTROGEN RECEPTOR DEGRADERS” (REGENT OF THE UNIVERSITY OF MICHIGAN, priority 2022, published 2026)
